Article PMC9241057, “Ru(II)arene(N^N bpy/phen)-based RAPTA complexes for in vitro anti-tumour activity in human glioblastoma cancer cell lines and in vivo toxicity studies in a zebrafish model” (RSC Advances, 2022)

Experiments:
zebrafish = assay: In vivo biodistribution study in zebrafish; settings: 25 μg g^−1, 15 minutes
Experimental: Biodistribution and sequestration studies of complex 4c were conducted via the caudal vein injection into the zebrafish. After 15 minutes (25 μg g^−1) of exposure, the fish were sacrificed and different organs (brain, heart, kidney, intestine, notochord and digestive system) were dissected and the biodistribution of this complex into these organs was measured by fluorescence microscopy. A comparative study was performed with complex 4c and Evans blue dye and was analyzed by the confocal imaging of the tissue sections. From this experiment, it was observed that the sensitivity of zebrafish towards 4c was sequestered in the brain, heart, kidney, intestine, notochord and digestive system. […] Furthermore, this fluorescence-based interaction could provide us with an idea of the uptake mechanism via crossing the blood–brain barrier.
Zebrafish were anesthetized with 2-phenoxyethanol and injected with complex 4cvia […]. After injection at different times, the fish were sacrificed and the organs were collected and fixed with 4% paraformaldehyde and 4% glutaraldehyde, followed by dehydration with the gradient increase of ethanol (75%, 95%, 100%) for 20 min each, further with xylene for 1 h and then fixed in Paraplast. […] Sequestration of complex 4c in different organs was investigated by confocal fluorescence microscopy using a CLSM (Zeiss LSM 710) microscope. […]

T98G cells = assay: Neurosphere assay; format: cell-based, human; settings: T98G, 20, 80 and 160 μM
Experimental: The neurosphere assay is one of the best methods for analysing the stem cell capacity of isolated brain cells.[23] The stem cell media was used to grow T98G cells through single-cell division within 3 days and subsequently the development of small-diameter “neurosphere-like” tumour spheres within 7 days. After 12–14 days of culture, a phase-contrast microscope was used to take the image of the tumour spheres. To promote differentiation, DMEM (containing 10% FBS) medium was added to the tumour spheres.
Fig. 5 Neurosphere assay using different concentrations: (b) 20 μM, (c) 80 μM and (d) 160 μM of complex 4c against the T98G cell line; (a) pre-treatment (concentration of 4c = 0 μM).
Serum-free DMEM/F-12 (1 : 1), B27 (1 : 50), EGF (20 μg L^−1), bFGF (20 μg L^−1), antibiotic (Gibco) were added to stem cell media. The cells were grown in a tissue culture incubator with 5% CO2 at […]. Serum-free media were changed twice a week.

[1] = target: bovine serum albumin (BSA) (Bos taurus, UniProt P02769); assay: BSA binding study, tryptophan emission quenching; settings: for n, number of binding sites (BSA): Scatchard equation; for kq, quenching rate constant (BSA): from KBSA and τo (1 × 10^−8 s)
Experimental: The KBSA of the complexes was obtained from Stern–Volmer plots by applying the well-known Stern–Volmer equation (Fig. S4 ^†). On the other hand, the quenching constants (kq) of 6.3 × 10^14 M^−1 s^−1 and 1.8 × 10^14 M^−1 s^−1 arising from biomolecular interactions were evaluated from KBSA and τo (1 × 10^−8 s) for the complexes 4c and 4d, correspondingly (Table S3 ^†). […]
Kapp × [Complex]50 = kEtBr × [EtBr]⋯⋯⋯(iii) […]
(§1) Stern-Volmer equation was followed for quantitative determination of the Stern-Volmer quenching constant (K SV).4 Origin (8.5) software was used to plot the fluorescence data to obtain linear plot of I0/I vs. [complex]. The value of KSV was calculated from the following […]
Where I0 = fluorescence intensity in absence of complex and I = fluorescence intensities in presence of complex of concentration [Q].
Protein binding studies 5
The main component is serum albumin proteins in drug transport and metabolism, as we all know. The interaction of the complex with […] serum albumin (BSA) was examined using a tryptophan emission quenching experiment. The association of the RAPTA complexes 4c and 4d with the protein BSA was detected using a tryptophan emission quenching assay. […]
concentrations gradually.
Origin Lab, version 8.5 was […]
equation (v) given below: […]

U87MG = assay: MTT cytotoxicity assay, U87MG; format: cell-based, human; settings: 72 h incubation
Experimental: The cytotoxic activity of prepared RAPTA complexes (4a–4h) was evaluated by following the standard procedure of the MTT experiment against a series of glioblastoma cells (LN 229, T98, U87MG) in triplicate. In order to accomplish this study, cells were maintained for 72 h with complexes of various concentrations ranging from 2–160 μM, taking cisplatin as a typical positive control.[22]
RAPTA complexes were dissolved in 1% DMSO, and 0.9% NaCl aqueous solution was used to dissolve cisplatin. A cell suspension was prepared and the number of cells taken was 2.5 × 10^4 mL^−1. The cells were seeded in 96-well plates (200 μL per well) and allowed 80% confluence prior to treatment. The cells were formerly treated with various concentrations (2.5–160 μM) of complex 4a–h while the control group was treated with PBS […]. After the 72 hours of incubation, 0.5% MTT solution was added to each well (20 μL) and further incubated for 4 hours at […]. The formazan crystals that were formed were dissolved in 150 μL DMSO and then the OD was measured by a microplate reader at 540 nm. The % growth inhibition of the control and treated cells were calculated and represented as the growth inhibition percentage as explained below.% growth inhibition = 100 − [(AD × 100)/AB]where AD is the absorbance measured in wells containing the treated and control samples and AB is the measured absorbance for the wells with media and a vehicle that served as the blank. IC50 was calculated using Graphpad Prism (version 6.0) where % cell viability was plotted against drug concentration.

EtBr-bound DNA (Ct-DNA) = assay: EtBr displacement assay (fluorescence); format: binding, calf; settings: for Ksv, Stern-Volmer quenching constant: EtBr-bound DNA; for Kapp, apparent DNA binding constant: competitive displacement of EtBr
Experimental: Ethidium bromide displacement assay […]
bromide (EtBr) displacement experiment was used.3 Using ethidium bromide (EtBr) as a spectral probe in 5 mM Tris-HCl buffer, the apparent binding constant (K app) of the RAPTA complex 4c to Ct-DNA was determined at pH = 7.4. Because the fluorescence of EtBr was quenched by the solvent molecules, it was unable to show any fluorescence in its free state.
However, in the presence of Ct-DNA, its fluorescence intensity began to increase, indicating that EtBr binds to DNA […] in an intercalative manner. With increasing concentrations of […]
complexes displaced EtBr from CT-DNA grooves and were linked to the DNA base pairs itself. The values of the apparent binding constant (K app) were obtained by using the equation […]
Kapp × [Complex]50 = kEtBr × [EtBr]⋯⋯⋯(iii)
Where KEtBr is the EtBr binding constant (K EtBr = 1.0 x 107 M-1), and [EtBr] = 8 x 10^-6 M.
as §1
Where I0 = fluorescence intensity in absence of complex and I = fluorescence intensities in presence of complex of concentration [Q]. […]

Sequence of bovine serum albumin (BSA) (P02769 25-607): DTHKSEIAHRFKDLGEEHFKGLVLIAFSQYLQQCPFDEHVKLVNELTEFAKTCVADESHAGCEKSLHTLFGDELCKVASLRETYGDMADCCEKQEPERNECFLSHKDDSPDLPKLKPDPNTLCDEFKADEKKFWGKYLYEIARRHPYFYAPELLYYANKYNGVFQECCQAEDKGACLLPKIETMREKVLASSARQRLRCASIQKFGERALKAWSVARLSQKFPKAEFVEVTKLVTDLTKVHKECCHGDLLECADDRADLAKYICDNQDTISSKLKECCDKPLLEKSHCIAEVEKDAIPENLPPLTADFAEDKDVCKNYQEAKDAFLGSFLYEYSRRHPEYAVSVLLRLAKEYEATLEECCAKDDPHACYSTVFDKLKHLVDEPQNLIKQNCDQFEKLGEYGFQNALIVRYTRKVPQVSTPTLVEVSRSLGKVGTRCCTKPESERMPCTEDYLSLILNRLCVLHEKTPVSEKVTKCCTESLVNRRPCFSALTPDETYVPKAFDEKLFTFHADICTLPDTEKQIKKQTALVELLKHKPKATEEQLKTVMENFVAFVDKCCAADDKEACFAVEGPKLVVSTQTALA

## C1N2CN3CN1CP(C2)C3.Cc1ccc(C(C)C)cc1.Cc1ccnc2c1ccc1c(C)ccnc12.F[P-](F)(F)(F)(F)F.F[P-](F)(F)(F)(F)F.[Ru+2] [4c, [(η^6-p-Cymene)Ru^II(κ^2-N,N-4,7dimethylphenanthroline)(PTA)]·2PF6]
zebrafish
  accumulation in the brain: accumulation was significant
  sequestration in digestive system, kidney and notochord: maximum sequestration
T98G cells
  effect on neurospheres: Complete developmental neurotoxicity
[1]
  n, number of binding sites (BSA): 1
  kq, quenching rate constant (BSA): 6.3e+14 M⁻¹ s⁻¹
U87MG
  IC50: 0.97 ± 0.02 µM
EtBr-bound DNA (Ct-DNA)
  Ksv, Stern-Volmer quenching constant: 180 M⁻¹
  Kapp, apparent DNA binding constant: 1.38e+06 M⁻¹
EtBr-bound DNA (Ct-DNA); Table S2
  Ksv, Stern-Volmer quenching constant: 180 M⁻¹
  Kapp, apparent DNA binding constant: 1.38e+06 M⁻¹

## C1N2CN3CN1CP(C2)C3.Cc1ccc(C(C)C)cc1.F[P-](F)(F)(F)(F)F.F[P-](F)(F)(F)(F)F.[Ru+2].c1ccc(-c2ccnc3c2ccc2c(-c4ccccc4)ccnc23)cc1 [4d, [(η^6-p-Cymene)Ru^II(κ^2-N,N-4,7diphenylphenanthroline)(PTA)]·2PF6]
[1]
  n, number of binding sites (BSA): 1
  kq, quenching rate constant (BSA): 1.8e+14 M⁻¹ s⁻¹
[1]; Scatchard plot
  K, binding constant with BSA: 52500 M⁻¹
U87MG
  IC50: 0.93 ± 0.02 µM
